One test deals with P. aeruginosa PAO1. The test can be described thus: Susceptibility Testing (MIC, broth microdilution). The class given is cell-based, Pseudomonas aeruginosa. The conditions noted are these: Pseudomonas aeruginosa, PAO1, 20 h, P. aeruginosa PAO1, broth microdilution, 20 hours; read-out: PAO1 MIC. In outline:
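Broth microdilution per CLSI in cation-adjusted Mueller-Hinton broth, inoculum ~5×10^5 CFU/mL, two-fold compound dilutions (1% DMSO final). Plates incubated 20 h in ambient air at 35° C. MIC is the lowest concentration preventing visible growth, confirmed by OD 600 nm reading.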
(In general: In broth dilution the organism is exposed to a series of concentrations in liquid medium.)

The target in the next test is P. aeruginosa LpxC (Pseudomonas aeruginosa (strain ATCC 15692 / DSM 22644 / CIP 104116 / JCM 14847 / LMG 12228 / 1C / PRS 101 / PAO1), UniProt P47205). Nature of the test: P. aeruginosa LpxC Inhibition Assay. The class given is biochemical. The conditions noted are these: 1 nM P. aeruginosa LpxC, 2 μM substrate, LC-MS/MS; read-out: PA LpxC IC50. In outline:
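Compounds pre-incubated 30 min at room temperature with 1 nM LpxC, then 2 μM UDP-3-O-(R-3-hydroxydecanoyl)-GlcNAc added; 20 min reaction in 50 mM sodium phosphate pH 7.5, 0.005% Triton X-100, quenched with HOAc. Product quantified by LC-MS/MS against calibration curve; IC50 from four-parameter logistic fit.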

Structures are written as SMILES. pIC50: −log10 of the molar value. In brackets after ≈: the same amount, converted by molar mass.

8 molecules from patent publication US9718792B2, “Isoxazoline hydroxamic acid derivatives as LpxC inhibitors” (priority 2014, dated 2017) can be followed below.

Usually MIC stands for the smallest concentration in the dilution series that meets the test's criterion for growth inhibition. A word on the pIC50: it is the IC50 on a negative log10 scale, so that one unit is a factor of ten.

Consider `CC#Cc1ccc(C2=NOC(CC(C)(C(=O)NO)S(C)(=O)=O)C2)nc1` (single isomer, unassigned) [Compound 14-B, N-hydroxy-2-methyl-2-(methylsulfonyl)-3-(3-(5-(prop-1-yn-1-yl)pyridin-2-yl)-4,5-dihydroisoxazol-5-yl)propanamide], for which the MIC in the test on P. aeruginosa PAO1 was determined as 8 µg/mL (≈ 21.9 µM). Moreover, the pIC50 on P. aeruginosa LpxC was 7.77.
For `COc1ccc(-c2ccc(C3=NO[C@@H](C[C@](C)(C(=O)NO)S(C)(=O)=O)C3)cc2)c(F)c1` [Compound 59, (R)-3-((R)-3-(2′-fluoro-4′-methoxy-[1,1′-biphenyl]-4-yl)-4,5-dihydroisoxazol-5-yl)-N-hydroxy-2-methyl-2-(methylsulfonyl)], in that order: 0.35 µg/mL (≈ 0.777 µM) and above 9.30.
With `C[C@@](C[C@H]1CC(c2ccc(C#CC3CCOCC3)cc2)=NO1)(C(=O)NO)S(C)(=O)=O` [Compound 98, (R)—N-hydroxy-2-methyl-2-(methylsulfonyl)-3-((R)-3-(4-((tetrahydro-2H-pyran-4-yl)ethynyl)phenyl)-4,5-dihydroisoxazol-5-yl)propanamide], the MIC with P. aeruginosa PAO1 came out at 2 µg/mL (≈ 4.6 µM). The pIC50 on P. aeruginosa LpxC is 9.22.
For `C[C@@](C[C@H]1CC(c2ccc(-c3ccncc3C(F)(F)F)cc2)=NO1)(C(=O)NO)S(C)(=O)=O` [Compound 111, (R)—N-hydroxy-2-methyl-2-(methylsulfonyl)-3-((R)-3-(4-(3-(trifluoromethyl)pyridin-4-yl)phenyl)-4,5-dihydroisoxazol-5-yl)propanamide], in that order: 1 µg/mL (≈ 2.12 µM) and above 9.30.
Consider `CC(C)(O)c1ccc(-c2ccc(C3=NO[C@@H](C[C@](C)(C(=O)NO)S(C)(=O)=O)C3)cc2)cn1` [Compound 84, (R)—N-hydroxy-3-((R)-3-(4-(6-(2-hydroxypropan-2-yl)pyridin-3-yl)phenyl)-4,5-dihydroisoxazol-5-yl)-2-methyl-2-(methylsulfonyl)propanamide], for which the MIC in the test with P. aeruginosa PAO1 was found to be 1 µg/mL (≈ 2.17 µM). In addition, the pIC50 at P. aeruginosa LpxC is above 9.30.
Consider `COC(CO)c1ccc(-c2ccc(C3=NO[C@@H](C[C@](C)(C(=O)NO)S(C)(=O)=O)C3)cc2)cc1` (stereo partly drawn) [Compound 75, (2R)—N-hydroxy-3-((5R)-3-(4′-(2-hydroxy-1-methoxyethyl)-[1,1′-biphenyl]-4-yl)-4,5-dihydroisoxazol-5-yl)-2-methyl-2-(methylsulfonyl)propanamidepropanamide], for which the MIC in the test on P. aeruginosa PAO1 was determined as 0.5 µg/mL (≈ 1.05 µM). Also, the pIC50 at P. aeruginosa LpxC is above 9.30.
On the same counts, the results for `C[C@@](C[C@H]1CC(c2ccc(-c3ccc(CO)nc3)cc2)=NO1)(C(=O)NO)S(C)(=O)=O` [Compound 65, (R)—N-hydroxy-3-((R)-3-(4-(6-(hydroxymethyl)pyridin-3-yl)phenyl)-4,5-dihydroisoxazol-5-yl)-2-methyl-2-(methylsulfonyl)propanamide] are 1 µg/mL (≈ 2.31 µM) and above 9.30.
With `CCc1ccc(C2=NO[C@@H](C[C@](C)(C(=O)NO)S(C)(=O)=O)C2)cc1` [Compound 31, (R)-3-((R)-3-(4-ethylphenyl)-4,5-dihydroisoxazol-5-yl)-N-hydroxy-2-methyl-2-(methylsulfonyl)propanamide], in the test on P. aeruginosa PAO1, the MIC was determined as 0.22 µg/mL (≈ 0.621 µM). Further, on P. aeruginosa LpxC, the pIC50 is 9.00.
